Test results published in patent US20240309069A1, “COMPOSITIONS AND METHODS FOR TREATMENT OF DISEASES” (Byrock Technologies Limited, priority 2014, published 2024).
Ends that are not written are not given here.

Test system: carbohydrate overload model of acute laminitis in horses
Assay: Oligofructose (carbohydrate) overload model of acute laminitis, LTNF peptide study KLM-15-02
Format: in vivo
Settings: all horses that received the intravenous peptide, 2 to 8 grams
Method: This communication is a brief report on the results obtained from the recent clinical study to evaluate the potential prophylactic and/or therapeutic properties of KLM's proprietary application of a 15 amino acid sequence termed LTRF in saline when employed in a carbohydrate overload model of acute laminitis in horses.
In compliance with the methods outlined in protocol KLM-15-02, nine healthy, mature horses between 4 and 9 years of age were evaluated for enrollment in the clinical study. […] Preliminary examinations were deemed normal for all candidates. Eligible candidates underwent a formal acclimation period of 10 days, during which feed, water, housing and management were identical to conditions of the actual study. On Days −3, −2, and −1, oligofructose was added to the a.m. grain ration of each candidate at a dosage of 1 gram per kg body weight.
Prior to induction on Day 0, a baseline lameness exam was repeated and captured on video. […]
At regular, 6-hr intervals after induction, the general health of each horse was assessed, a lameness exam was repeated, and rectal temperature was monitored. Once diarrhea had begun, each horse's hydration status was monitored at 2- to 4-hr intervals by assessing its packed cell volume (PCV; hematocrit) and plasma total protein concentration. […]

LKAMDPTPPLWIKTE [LTNF peptide, Leu-Lys-Ala-Met-Asp-Pro-Thr-Pro-Pro-Leu-Trp-Ile-Lys-Thr-Glu]
signs of immune reaction or toxicity: no signs of immune reaction or toxicity
